Results as given in article PMC3145970, “Specific CLK Inhibitors from a Novel Chemotype for Regulation of Alternative Splicing” (Chemistry & Biology, 2011).
Like-named read-outs stand apart in the source and are kept apart here.

Legend:
Experiment in all cases: Thermal stability shift assay
Type in all cases: binding
ALK2 = molecular target: T1, ALK2 (Homo sapiens, UniProt Q04771); details: read-out: Tm shift ALK2
T1 sequence (Q04771 21-509): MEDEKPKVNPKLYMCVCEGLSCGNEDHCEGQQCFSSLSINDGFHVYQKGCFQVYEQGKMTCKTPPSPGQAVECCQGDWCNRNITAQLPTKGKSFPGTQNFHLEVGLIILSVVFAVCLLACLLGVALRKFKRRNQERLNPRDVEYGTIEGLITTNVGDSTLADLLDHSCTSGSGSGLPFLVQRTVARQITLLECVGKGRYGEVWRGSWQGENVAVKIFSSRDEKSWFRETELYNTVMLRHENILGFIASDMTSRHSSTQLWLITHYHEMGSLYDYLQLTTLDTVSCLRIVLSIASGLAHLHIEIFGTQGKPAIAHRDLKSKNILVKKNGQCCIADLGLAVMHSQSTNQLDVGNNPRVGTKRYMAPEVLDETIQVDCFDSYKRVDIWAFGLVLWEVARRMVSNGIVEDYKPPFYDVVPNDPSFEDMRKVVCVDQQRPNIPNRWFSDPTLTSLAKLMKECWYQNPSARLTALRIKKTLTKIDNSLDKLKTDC
In short: (§1)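 DSF read-out: SyproOrange fluorescence (1:1000) during thermal unfolding of 2 μM kinase with 10 μM compound. Buffer 10 mM HEPES pH 7.5, 500 mM NaCl; run on a real-time PCR machine.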

CK2a1 = CK2a1 (Homo sapiens, UniProt P68400); details: read-out: Tm shift CK2a1
In short: as §1

JAK1 = molecular target: T2, JAK1 (Homo sapiens, UniProt P23458); details: read-out: Tm shift JAK1
T2 construct: purchased in-house (SGC Oxford thermal shift panel)
In short: as §1

JNK2 = molecular target: T3, JNK2 (Homo sapiens, UniProt P45984); details: read-out: Tm shift JNK2
T3 construct: purchased in-house (SGC Oxford thermal shift panel)
In short: as §1

NDR2 = molecular target: T4, NDR2 (Homo sapiens, UniProt Q9Y2H1); details: read-out: Tm shift NDR2
T4 construct: purchased in-house (SGC Oxford thermal shift panel)
In short: as §1

NEK7 = molecular target: T5, NEK7 (Homo sapiens, UniProt Q8TDX7); details: read-out: Tm shift NEK7
T5 construct: purchased in-house (SGC Oxford thermal shift panel)
In short: as §1

PKD2 = molecular target: T6, PKD2 (Homo sapiens, UniProt Q9BZL6); details: read-out: Tm shift PKD2
T6 sequence (Q9BZL6 1-878): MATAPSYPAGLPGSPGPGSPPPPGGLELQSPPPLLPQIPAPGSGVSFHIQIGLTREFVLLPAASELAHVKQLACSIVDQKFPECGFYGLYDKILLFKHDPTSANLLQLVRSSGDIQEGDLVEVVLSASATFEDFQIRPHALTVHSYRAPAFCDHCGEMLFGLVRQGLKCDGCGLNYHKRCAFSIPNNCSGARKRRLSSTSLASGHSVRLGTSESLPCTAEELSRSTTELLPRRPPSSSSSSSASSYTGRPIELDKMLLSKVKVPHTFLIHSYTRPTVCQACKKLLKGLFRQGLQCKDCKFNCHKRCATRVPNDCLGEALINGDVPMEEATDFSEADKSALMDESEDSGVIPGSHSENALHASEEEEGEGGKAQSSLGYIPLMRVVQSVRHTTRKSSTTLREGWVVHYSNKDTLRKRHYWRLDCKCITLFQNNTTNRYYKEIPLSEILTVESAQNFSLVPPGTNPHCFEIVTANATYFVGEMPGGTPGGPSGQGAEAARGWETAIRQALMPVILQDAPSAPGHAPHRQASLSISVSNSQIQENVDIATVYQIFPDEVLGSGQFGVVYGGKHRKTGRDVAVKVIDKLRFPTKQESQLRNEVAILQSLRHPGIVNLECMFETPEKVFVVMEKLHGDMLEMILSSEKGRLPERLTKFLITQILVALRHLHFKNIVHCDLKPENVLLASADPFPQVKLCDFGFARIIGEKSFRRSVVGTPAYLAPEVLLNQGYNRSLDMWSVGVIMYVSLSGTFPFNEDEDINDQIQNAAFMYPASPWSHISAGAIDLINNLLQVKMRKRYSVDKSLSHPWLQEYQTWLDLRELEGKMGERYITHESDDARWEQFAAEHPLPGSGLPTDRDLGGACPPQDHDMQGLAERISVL
In short: as §1

STK33 = STK33 (Homo sapiens, UniProt Q9BYT3); details: read-out: Tm shift STK33
In short: as §1

TTK = molecular target: T7, TTK (Homo sapiens, UniProt P33981); details: read-out: Tm shift TTK
T7 sequence (P33981 1-857): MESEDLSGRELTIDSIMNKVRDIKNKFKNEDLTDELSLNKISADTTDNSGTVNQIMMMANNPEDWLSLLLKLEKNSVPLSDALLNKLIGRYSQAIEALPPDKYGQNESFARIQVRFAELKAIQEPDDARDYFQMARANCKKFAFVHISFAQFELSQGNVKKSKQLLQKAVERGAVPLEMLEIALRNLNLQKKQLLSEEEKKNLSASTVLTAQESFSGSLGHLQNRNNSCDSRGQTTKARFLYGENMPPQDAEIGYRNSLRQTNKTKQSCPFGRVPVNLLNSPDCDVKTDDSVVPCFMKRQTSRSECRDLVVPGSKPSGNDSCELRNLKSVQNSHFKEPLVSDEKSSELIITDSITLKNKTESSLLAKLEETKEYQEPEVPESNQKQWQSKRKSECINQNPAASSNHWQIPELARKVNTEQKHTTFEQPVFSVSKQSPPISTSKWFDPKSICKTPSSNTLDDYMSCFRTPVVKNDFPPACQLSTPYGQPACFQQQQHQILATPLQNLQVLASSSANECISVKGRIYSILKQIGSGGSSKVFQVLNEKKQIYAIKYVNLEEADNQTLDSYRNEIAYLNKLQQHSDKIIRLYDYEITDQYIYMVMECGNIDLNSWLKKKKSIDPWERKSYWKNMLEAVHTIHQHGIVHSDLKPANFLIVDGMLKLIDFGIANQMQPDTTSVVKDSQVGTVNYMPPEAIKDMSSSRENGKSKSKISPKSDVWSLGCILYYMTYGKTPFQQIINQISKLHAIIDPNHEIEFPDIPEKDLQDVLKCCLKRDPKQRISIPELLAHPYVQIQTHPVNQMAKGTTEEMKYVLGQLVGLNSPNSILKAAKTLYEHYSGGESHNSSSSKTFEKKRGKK
In short: as §1

YANK1 = YANK1 (Homo sapiens, UniProt Q8WU08); details: read-out: Tm shift YANK1
In short: as §1

Chain of STK33 (Q9BYT3 whole entry): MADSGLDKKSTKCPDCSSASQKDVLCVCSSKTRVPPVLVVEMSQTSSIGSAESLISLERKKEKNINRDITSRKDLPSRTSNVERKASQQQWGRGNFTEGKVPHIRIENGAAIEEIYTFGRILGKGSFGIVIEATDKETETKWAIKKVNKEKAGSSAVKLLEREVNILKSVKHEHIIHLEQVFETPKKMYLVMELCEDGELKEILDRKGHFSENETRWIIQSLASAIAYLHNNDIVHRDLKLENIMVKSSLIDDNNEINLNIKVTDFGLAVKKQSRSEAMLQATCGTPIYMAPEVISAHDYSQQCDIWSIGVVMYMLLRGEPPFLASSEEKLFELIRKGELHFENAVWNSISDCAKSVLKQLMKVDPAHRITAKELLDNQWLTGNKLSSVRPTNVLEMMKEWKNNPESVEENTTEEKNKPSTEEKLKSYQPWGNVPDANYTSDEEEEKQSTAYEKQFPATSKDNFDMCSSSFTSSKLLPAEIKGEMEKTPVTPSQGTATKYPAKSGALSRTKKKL
Chain of CK2a1 (P68400 whole entry): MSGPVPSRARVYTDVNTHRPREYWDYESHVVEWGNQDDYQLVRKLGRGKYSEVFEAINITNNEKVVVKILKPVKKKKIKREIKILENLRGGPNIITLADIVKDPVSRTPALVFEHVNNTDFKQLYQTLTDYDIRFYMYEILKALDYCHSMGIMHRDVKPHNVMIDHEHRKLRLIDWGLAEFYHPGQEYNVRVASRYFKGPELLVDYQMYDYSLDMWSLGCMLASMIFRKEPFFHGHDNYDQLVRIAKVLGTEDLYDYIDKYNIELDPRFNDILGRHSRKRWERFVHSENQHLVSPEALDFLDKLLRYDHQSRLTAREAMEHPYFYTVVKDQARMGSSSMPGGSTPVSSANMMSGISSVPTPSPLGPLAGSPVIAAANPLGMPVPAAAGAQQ
T2 sequence (P23458 whole entry): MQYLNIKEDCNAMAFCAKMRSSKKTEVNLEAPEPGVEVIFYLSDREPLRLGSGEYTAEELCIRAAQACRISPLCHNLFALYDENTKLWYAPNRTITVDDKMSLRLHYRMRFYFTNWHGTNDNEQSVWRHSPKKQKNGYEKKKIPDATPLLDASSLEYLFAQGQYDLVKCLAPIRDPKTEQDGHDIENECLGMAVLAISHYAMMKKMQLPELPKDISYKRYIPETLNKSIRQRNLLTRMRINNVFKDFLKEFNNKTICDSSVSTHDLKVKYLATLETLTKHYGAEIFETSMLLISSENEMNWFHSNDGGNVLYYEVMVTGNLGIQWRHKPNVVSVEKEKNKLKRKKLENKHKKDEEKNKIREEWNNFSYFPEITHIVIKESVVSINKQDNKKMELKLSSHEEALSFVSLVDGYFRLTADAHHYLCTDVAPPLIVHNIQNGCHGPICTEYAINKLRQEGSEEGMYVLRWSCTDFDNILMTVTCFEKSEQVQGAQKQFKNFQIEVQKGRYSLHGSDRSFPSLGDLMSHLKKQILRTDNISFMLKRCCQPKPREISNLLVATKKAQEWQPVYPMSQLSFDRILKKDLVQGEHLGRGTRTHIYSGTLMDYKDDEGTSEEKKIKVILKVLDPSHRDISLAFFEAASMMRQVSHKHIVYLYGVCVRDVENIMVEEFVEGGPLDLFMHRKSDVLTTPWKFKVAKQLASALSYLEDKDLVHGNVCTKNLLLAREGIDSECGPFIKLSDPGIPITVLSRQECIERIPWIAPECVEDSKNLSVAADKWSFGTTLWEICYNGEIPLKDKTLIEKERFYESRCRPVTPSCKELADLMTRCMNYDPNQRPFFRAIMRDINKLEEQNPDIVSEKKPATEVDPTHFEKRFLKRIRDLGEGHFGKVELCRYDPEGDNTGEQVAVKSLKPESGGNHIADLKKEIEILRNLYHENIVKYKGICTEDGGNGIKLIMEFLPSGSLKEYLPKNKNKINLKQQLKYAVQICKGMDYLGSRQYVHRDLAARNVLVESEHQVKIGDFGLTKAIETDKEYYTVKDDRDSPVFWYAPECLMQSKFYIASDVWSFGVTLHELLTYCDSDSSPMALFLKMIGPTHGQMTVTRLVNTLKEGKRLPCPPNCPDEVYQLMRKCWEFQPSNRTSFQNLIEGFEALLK
T4 sequence (Q9Y2H1 whole entry): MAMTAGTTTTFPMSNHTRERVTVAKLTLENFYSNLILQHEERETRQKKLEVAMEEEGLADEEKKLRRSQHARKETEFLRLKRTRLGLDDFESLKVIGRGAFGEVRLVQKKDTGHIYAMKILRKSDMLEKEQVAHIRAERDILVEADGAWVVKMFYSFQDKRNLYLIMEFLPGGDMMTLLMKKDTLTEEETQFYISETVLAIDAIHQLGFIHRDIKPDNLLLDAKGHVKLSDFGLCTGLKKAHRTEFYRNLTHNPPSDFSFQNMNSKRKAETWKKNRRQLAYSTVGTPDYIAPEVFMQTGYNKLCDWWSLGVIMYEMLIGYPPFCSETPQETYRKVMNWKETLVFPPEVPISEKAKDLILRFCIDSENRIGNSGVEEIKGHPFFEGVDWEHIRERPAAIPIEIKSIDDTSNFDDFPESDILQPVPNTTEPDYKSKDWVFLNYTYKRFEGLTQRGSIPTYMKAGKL
Chain of YANK1 (Q8WU08 whole entry): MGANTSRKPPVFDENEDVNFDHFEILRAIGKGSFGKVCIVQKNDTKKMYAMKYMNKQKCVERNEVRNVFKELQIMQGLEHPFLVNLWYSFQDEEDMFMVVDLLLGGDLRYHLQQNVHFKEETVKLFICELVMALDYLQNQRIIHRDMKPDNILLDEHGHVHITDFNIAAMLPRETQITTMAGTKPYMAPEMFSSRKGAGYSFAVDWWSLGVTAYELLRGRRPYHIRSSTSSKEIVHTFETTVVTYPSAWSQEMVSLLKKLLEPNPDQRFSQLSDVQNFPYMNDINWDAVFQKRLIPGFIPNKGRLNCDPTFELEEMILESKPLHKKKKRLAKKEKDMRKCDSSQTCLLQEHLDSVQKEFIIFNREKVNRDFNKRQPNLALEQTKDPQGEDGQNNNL
T5 sequence (Q8TDX7 whole entry): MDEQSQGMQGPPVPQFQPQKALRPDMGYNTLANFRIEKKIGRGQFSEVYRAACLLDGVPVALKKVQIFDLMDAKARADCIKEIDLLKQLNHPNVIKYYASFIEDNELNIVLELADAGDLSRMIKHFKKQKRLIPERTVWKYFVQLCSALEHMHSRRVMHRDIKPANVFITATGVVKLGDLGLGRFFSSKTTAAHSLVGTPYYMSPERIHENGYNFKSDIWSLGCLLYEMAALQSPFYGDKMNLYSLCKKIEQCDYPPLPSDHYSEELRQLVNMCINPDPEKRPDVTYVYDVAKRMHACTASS
T3 sequence (P45984 whole entry): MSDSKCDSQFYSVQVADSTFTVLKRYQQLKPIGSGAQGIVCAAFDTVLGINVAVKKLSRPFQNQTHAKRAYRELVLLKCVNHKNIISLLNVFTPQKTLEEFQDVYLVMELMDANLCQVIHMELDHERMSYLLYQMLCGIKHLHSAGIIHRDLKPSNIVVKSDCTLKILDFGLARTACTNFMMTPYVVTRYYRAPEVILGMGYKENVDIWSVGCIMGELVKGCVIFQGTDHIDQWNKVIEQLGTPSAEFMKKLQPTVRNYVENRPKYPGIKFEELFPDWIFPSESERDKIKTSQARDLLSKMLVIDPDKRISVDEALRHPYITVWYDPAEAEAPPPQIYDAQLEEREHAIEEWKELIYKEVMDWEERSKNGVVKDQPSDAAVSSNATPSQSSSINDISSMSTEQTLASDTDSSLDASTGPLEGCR

## CCOC(=O)c1c(C(C#N)=CN(C)C)c2ccc(Cl)c(Cl)c2n1C (mixture of isomers) [compound 2, (E/Z)-Ethyl 6,7-Dichloro-3-[1-Cyano-2-(Dimethylamino)Vinyl]-1-Methyl-1H-Indole-2-Carboxylate]
ALK2; inhibitor 10 μM
  ΔTm at 10 µM: -0.5 °C
CK2a1; inhibitor 10 μM
  ΔTm at 10 µM: 1.4 °C
JAK1; inhibitor 10 μM
  ΔTm at 10 µM: 0.2 °C
JNK2; inhibitor 10 μM
  ΔTm at 10 µM: -0.2 °C
NDR2; inhibitor 10 μM
  ΔTm at 10 µM: -0.1 °C
NEK7; inhibitor 10 μM
  ΔTm at 10 µM: -0.7 °C
PKD2; inhibitor 10 μM
  ΔTm at 10 µM: 0 °C
STK33; inhibitor 10 μM
  ΔTm at 10 µM: 0.7 °C
TTK; inhibitor 10 μM
  ΔTm at 10 µM: -0.1 °C
YANK1; inhibitor 10 μM
  ΔTm at 10 µM: 0 °C

## NC1=NC(=O)/C(=C2\CCNC(=O)c3[nH]c(Br)cc32)N1 [Hymenialdisine, hymenialdisine, reference compound]
ALK2; inhibitor 10 μM
  ΔTm at 10 µM: 2.1 °C
CK2a1; inhibitor 10 μM
  ΔTm at 10 µM: 0.8 °C
JAK1; inhibitor 10 μM
  ΔTm at 10 µM: 0.3 °C
JNK2; inhibitor 10 μM
  ΔTm at 10 µM: -0.1 °C
NDR2; inhibitor 10 μM
  ΔTm at 10 µM: 0.9 °C
NEK7; inhibitor 10 μM
  ΔTm at 10 µM: 0.6 °C
PKD2; inhibitor 10 μM
  ΔTm at 10 µM: 0.8 °C
STK33; inhibitor 10 μM
  ΔTm at 10 µM: 3.9 °C
TTK; inhibitor 10 μM
  ΔTm at 10 µM: 0.7 °C
YANK1; inhibitor 10 μM
  ΔTm at 10 µM: 0 °C

## CCOC(=O)c1c(C(C#N)=CN)c2ccc(Cl)c(Cl)c2n1C (mixture of isomers) [KH-CB20, (E/Z)-Ethyl 3-(2-Amino-1-Cyanovinyl)-6,7-Dichloro-1-Methyl-1H-Indole-2-Carboxylate]
ALK2
  ΔTm at 10 µM: 0.8 °C
CK2a1
  ΔTm at 10 µM: 1.1 °C
JAK1
  ΔTm at 10 µM: 1 °C
JNK2
  ΔTm at 10 µM: 0.5 °C
NDR2
  ΔTm at 10 µM: -0.3 °C
NEK7
  ΔTm at 10 µM: 0.1 °C
PKD2
  ΔTm at 10 µM: -0.2 °C
STK33
  ΔTm at 10 µM: 0.8 °C
TTK
  ΔTm at 10 µM: 0.3 °C
YANK1
  ΔTm at 10 µM: -0.3 °C

## CCOC(=O)c1c(/C(C#N)=C\N)c2ccc(Cl)c(Cl)c2n1C [KH-CB19, (E)-Ethyl 3-(2-Amino-1-Cyanovinyl)-6,7-Dichloro-1-Methyl-1H-Indole-2-Carboxylate]
ALK2
  ΔTm at 10 µM: 0.5 °C
CK2a1
  ΔTm at 10 µM: 1.3 °C
JAK1
  ΔTm at 10 µM: 0.7 °C
JNK2
  ΔTm at 10 µM: -0.2 °C
NDR2
  ΔTm at 10 µM: -0.2 °C
NEK7
  ΔTm at 10 µM: 0 °C
PKD2
  ΔTm at 10 µM: 0.1 °C
STK33
  ΔTm at 10 µM: 0.3 °C
TTK
  ΔTm at 10 µM: 0.5 °C
YANK1
  ΔTm at 10 µM: -0.2 °C

## Cn1c2c(Cl)c(Cl)ccc2c2c(C#N)c[nH]c(=O)c21 [compound 3, 7,8-Dichloro-9-Methyl-1-Oxo-2,9-Dihydro-1H-Pyrido[3,4-b]Indole-4-Carbonitrile]
ALK2; inhibitor 10 μM
  ΔTm at 10 µM: 0.5 °C
CK2a1; inhibitor 10 μM
  ΔTm at 10 µM: 1.3 °C
JAK1; inhibitor 10 μM
  ΔTm at 10 µM: 0.9 °C
JNK2; inhibitor 10 μM
  ΔTm at 10 µM: -0.5 °C
NDR2; inhibitor 10 μM
  ΔTm at 10 µM: 0 °C
NEK7; inhibitor 10 μM
  ΔTm at 10 µM: 0.6 °C
PKD2; inhibitor 10 μM
  ΔTm at 10 µM: 0.1 °C
STK33; inhibitor 10 μM
  ΔTm at 10 µM: 1.1 °C
TTK; inhibitor 10 μM
  ΔTm at 10 µM: 1.8 °C
YANK1; inhibitor 10 μM
  ΔTm at 10 µM: 0.3 °C
